Assay results taken from publication PMC5104948, “Regulation and Essentiality of the StAR-related Lipid Transfer (START) Domain-containing Phospholipid Transfer Protein PFA0210c in Malaria Parasites” (The Journal of Biological Chemistry, 2016).

Experiments:
[1] = molecular target: T1, truncated PFA0210c (Trunc.) (Plasmodium falciparum, UniProt Q8I298); experiment: […]-phosphatidylcholine transfer from donor to acceptor vesicles; assay type: biochemical; conditions: pH 7.4, 37 °C, 30 min; 25 μg/ml protein; labelled compound (trace in phosphatidylcholine vesicles)
T1 construct: gene PF3D7_0104200; residues 144-418 (C-terminal 48 residues removed); N-terminal MBP and C-terminal His6 kept; E. coli BL21(DE3)

[2] = molecular target: T2, PFA0210c (full-length, FL) (Plasmodium falciparum, UniProt Q8I298); experiment: as above; assay type: biochemical; conditions: pH 7.4, 37 °C, 30 min; 25 μg/ml protein; labelled compound (trace in phosphatidylcholine vesicles)
T2 construct: gene PF3D7_0104200; residues 144-466 (N-terminal region omitted, START domain plus whole C-terminal extension); N-terminal MBP and C-terminal His6 kept; E. coli BL21(DE3); monomeric SEC fractions; strain only from the locus tag and parasite line
T2 sequence (Q8I298 144-466): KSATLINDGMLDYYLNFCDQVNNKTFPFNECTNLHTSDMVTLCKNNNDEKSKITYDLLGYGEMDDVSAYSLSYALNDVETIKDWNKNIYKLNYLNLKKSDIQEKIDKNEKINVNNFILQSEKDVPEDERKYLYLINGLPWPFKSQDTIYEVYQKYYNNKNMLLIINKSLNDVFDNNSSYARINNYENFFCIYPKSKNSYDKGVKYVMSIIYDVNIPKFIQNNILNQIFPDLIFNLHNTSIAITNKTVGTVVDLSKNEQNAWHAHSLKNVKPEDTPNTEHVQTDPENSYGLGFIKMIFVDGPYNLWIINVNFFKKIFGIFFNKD

CCCCCCCCCCCCCCCC(=O)OC[C@H](COP(=O)([O-])OCC[N+](C)(C)C)OC(=O)CCCCCCCCCCCCCCC [L-α-dipalmitoyl-phosphatidylcholine]
phospholipid transfer activity [1]: All the truncated proteins showed higher phospholipid transfer activity than the full-length protein | phospholipid transfer activity [2]: measures the transfer of radiolabeled phosphatidylcholine from a small population of donor vesicles
